One assay deals with Acetylcholinesterase (Homo sapiens, UniProt P22303). Description: Inhibition of AChE (unknown origin).
Another assay deals with Cholinesterase (Homo sapiens, UniProt P06276). The assay can be described thus: Inhibition of BChE (unknown origin).
Chain of Cholinesterase (P06276 whole entry): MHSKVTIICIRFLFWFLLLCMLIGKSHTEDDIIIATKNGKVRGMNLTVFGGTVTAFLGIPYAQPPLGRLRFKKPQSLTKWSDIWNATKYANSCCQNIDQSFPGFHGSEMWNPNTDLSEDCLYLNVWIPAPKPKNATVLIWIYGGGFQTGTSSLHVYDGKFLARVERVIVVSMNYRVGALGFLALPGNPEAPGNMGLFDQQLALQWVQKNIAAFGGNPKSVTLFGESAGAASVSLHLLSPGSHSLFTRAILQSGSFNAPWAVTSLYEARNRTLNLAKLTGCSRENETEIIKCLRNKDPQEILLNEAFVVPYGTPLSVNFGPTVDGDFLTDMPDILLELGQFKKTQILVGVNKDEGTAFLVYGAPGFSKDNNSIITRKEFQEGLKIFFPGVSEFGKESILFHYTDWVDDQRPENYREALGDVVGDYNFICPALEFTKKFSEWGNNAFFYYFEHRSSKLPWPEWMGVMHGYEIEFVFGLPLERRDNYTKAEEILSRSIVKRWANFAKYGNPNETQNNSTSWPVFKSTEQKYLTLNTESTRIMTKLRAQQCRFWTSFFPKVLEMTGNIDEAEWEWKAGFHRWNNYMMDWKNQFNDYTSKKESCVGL

Chain of Acetylcholinesterase (P22303 whole entry): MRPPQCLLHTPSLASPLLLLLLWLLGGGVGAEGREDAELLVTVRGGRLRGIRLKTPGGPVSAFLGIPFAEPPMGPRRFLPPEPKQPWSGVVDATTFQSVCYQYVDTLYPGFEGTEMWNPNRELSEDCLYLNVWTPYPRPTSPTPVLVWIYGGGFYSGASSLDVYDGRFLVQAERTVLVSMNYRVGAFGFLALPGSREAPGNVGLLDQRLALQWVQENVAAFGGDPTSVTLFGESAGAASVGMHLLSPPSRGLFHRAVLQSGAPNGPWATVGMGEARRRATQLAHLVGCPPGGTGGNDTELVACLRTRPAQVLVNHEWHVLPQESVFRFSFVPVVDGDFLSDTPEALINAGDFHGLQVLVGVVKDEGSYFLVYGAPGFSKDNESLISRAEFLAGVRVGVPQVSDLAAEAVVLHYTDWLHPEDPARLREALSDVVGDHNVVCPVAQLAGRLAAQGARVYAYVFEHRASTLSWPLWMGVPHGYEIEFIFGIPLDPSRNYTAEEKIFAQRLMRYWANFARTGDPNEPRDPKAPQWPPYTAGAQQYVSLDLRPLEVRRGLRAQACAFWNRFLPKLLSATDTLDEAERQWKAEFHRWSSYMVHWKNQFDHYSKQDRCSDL

On to `O=[N+]([O-])C1C(Cc2c[nH]cn2)NC2(c3ccccc3-c3nc4ccccc4nc32)C1c1ccccc1` (configuration not stated), for which the IC50 against Acetylcholinesterase is 11.8 µM; at Cholinesterase, 15.6 µM.

As to `O=[N+]([O-])C1C(Cc2c[nH]cn2)NC2(c3ccccc3-c3nc4ccccc4nc32)C1c1ccco1` (configuration not stated), the 50% inhibitory concentration (IC50) at Acetylcholinesterase turned out to be 14.2 µM; against Cholinesterase it was 22.3 µM.

Regarding `Cc1cccc(C2C([N+](=O)[O-])C(Cc3c[nH]cn3)NC23c2ccccc2-c2nc4ccccc4nc23)c1` (configuration not stated), the IC50 against Acetylcholinesterase was found to be 7.8 µM; on Cholinesterase, 13.6 µM.

For the compound `O=[N+]([O-])C1C(Cc2c[nH]cn2)NC2(c3ccccc3-c3nc4ccccc4nc32)C1c1ccccn1` (configuration not stated), the IC50 was 17 µM against Acetylcholinesterase and 24.3 µM on Cholinesterase.

With `COc1cccc(C2C([N+](=O)[O-])C(Cc3c[nH]cn3)NC23c2ccccc2-c2nc4ccccc4nc23)c1` (configuration not stated), the IC50 came to 9.2 µM against Acetylcholinesterase and 14.7 µM at Cholinesterase.

Turning to `Cc1ccc(C2C([N+](=O)[O-])C(Cc3c[nH]cn3)NC23c2ccccc2-c2nc4ccccc4nc23)cc1` (configuration not stated), the figures for the IC50 at Acetylcholinesterase and on Cholinesterase were 2.02 µM and 12.4 µM, respectively.

As to `COc1ccc(C2C([N+](=O)[O-])C(Cc3c[nH]cn3)NC23c2ccccc2-c2nc4ccccc4nc23)cc1` (configuration not stated), the values for the IC50 at Acetylcholinesterase and on Cholinesterase were 2.05 µM and 11.5 µM, respectively.

Consider `COc1ccccc1C1C([N+](=O)[O-])C(Cc2c[nH]cn2)NC12c1ccccc1-c1nc3ccccc3nc12` (configuration not stated), for which the IC50 at Acetylcholinesterase stood at 5.22 µM; on Cholinesterase, 14.2 µM.

For `Cc1ccccc1C1C([N+](=O)[O-])C(Cc2c[nH]cn2)NC12c1ccccc1-c1nc3ccccc3nc12` (configuration not stated), the IC50 against Acetylcholinesterase was 10 µM; at Cholinesterase it was 13.8 µM.

For `O=[N+]([O-])C1C(Cc2c[nH]cn2)NC2(c3ccccc3-c3nc4ccccc4nc32)C1c1ccc(Cl)cc1` (configuration not stated), the values for the 50% inhibitory concentration (IC50) at Acetylcholinesterase and at Cholinesterase were 18.2 µM and 21.6 µM, respectively.

With `O=[N+]([O-])C1C(Cc2c[nH]cn2)NC2(c3ccccc3-c3nc4ccccc4nc32)C1c1ccc(Br)cc1` (configuration not stated), the IC50 against Acetylcholinesterase turned out to be 16.2 µM; against Cholinesterase, 26.6 µM.

What is called IC50 is the point on the concentration scale where inhibition reaches its midpoint. Lower therefore signals higher potency.

Source of the values: ChEMBL document CHEMBL4602614, “Design, synthesis and cholinesterase inhibitory activity of novel spiropyrrolidine tethered imidazole heterocyclic hybrids” (Bioorg Med Chem Lett, 2020).
